Measured values taken from the Deep4Chem optical property database.

Experiment: solvent given as SMILES

## c1ccc(N(c2ccccc2)c2cc3c4c(c2)N(c2ccccc2)c2cc5c(cc2B4c2ccccc2N3c2ccccc2)B2c3ccccc3N(c3ccccc3)c3cc(N(c4ccccc4)c4ccccc4)cc(c32)N5c2ccccc2)cc1
In Cc1ccccc1
  absorption maximum: 457 nm

## CCN(CC)c1c2ccc(=[N+]3CCCCC3)cc-2oc2cc(N3CCCCC3)ccc12
In ClCCl
  absorption maximum: 499 nm

## CN(C)c1ccc2c(-c3ccc(C(=O)[O-])cc3C(=O)[O-])c3ccc(=[N+](C)C)cc-3oc2c1
In CCO
  absorption maximum: 540 nm
In O
  absorption maximum: 548 nm

## CCCCCCOC(=O)/C=C/C1=CC2=C(c3c(C)cc(C)cc3C)c3cc(/C=C/C(=O)OCCCCCC)cn3[B-](F)(F)[N+]2=C1
In ClCCl
  absorption maximum: 579 nm

## N#Cc1cc(/C=C/c2ccc(N(c3ccccc3)c3ccccc3)cc2)ccc1/C=C/c1ccc(/C=C/c2ccc(N(c3ccccc3)c3ccccc3)cc2)cc1
In ClCCl
  absorption maximum: 433 nm

## O=S(=O)(c1ccc(N2c3ccccc3[Si](c3ccccc3)(c3ccccc3)c3ccccc32)cc1)c1ccc(N2c3ccccc3[Si](c3ccccc3)(c3ccccc3)c3ccccc32)cc1
In Cc1ccccc1
  absorption maximum: 328 nm

## Nc1ccc2c(-c3ccccc3C(=O)[O-])c3ccc(=[NH2+])cc-3oc2c1
In CC#N
  absorption maximum: 500 nm
In CCO
  absorption maximum: 499 nm
In CN(C)C=O
  absorption maximum: 515 nm
In O
  absorption maximum: 497 nm

## Cc1c(COC(=O)c2ccccc2Cl)n2c(OCC(=O)c3ccccc3Cl)c(C)c(=O)n2c1=O
In CCO
  absorption maximum: 381 nm

## O=Cc1nc2ccc(C#Cc3ccc(N(c4ccccc4)c4ccccc4)cc3)cc2s1
In Cc1ccccc1
  absorption maximum: 412 nm

## O=c1c(Nc2ccccc2)c([O-])c1=[NH+]c1ccccc1
In C1CCOC1
  absorption maximum: 401 nm
In CC#N
  absorption maximum: 390 nm
In CC(C)=O
  absorption maximum: 398 nm
In CCO
  absorption maximum: 393 nm
In CCOCC
  absorption maximum: 400 nm
In CN1CCCC1=O
  absorption maximum: 393 nm
In CN(C)C=O
  absorption maximum: 393 nm
In CO
  absorption maximum: 390 nm
In CS(C)=O
  absorption maximum: 378 nm
In O
  absorption maximum: 374 nm

## c1cc2ccc1-c1ccc(cc1)-c1ccc([se]1)-c1ccc(cc1)-c1ccc(cc1)-c1ccc([se]1)-c1ccc(cc1)-c1ccc(cc1)-c1ccc([se]1)-c1ccc(cc1)-c1ccc(cc1)-c1ccc-2[se]1
In C1CCOC1
  absorption maximum: 370 nm

## COC(=O)c1cc(=O)n(Cc2ccccc2)c2cc(-c3ccc(OC)cc3)sc12
In CC#N
  absorption maximum: 400 nm
In ClCCl
  absorption maximum: 404 nm

## C#CCOc1ccc(/C=C/C2=[N+]3C(=C(c4ccc(N5CCCCC5)cc4)c4c(C)cc(C)n4[B-]3(F)F)C(C)=C2)cc1
In CO
  absorption maximum: 568 nm

## O=c1c2cc(F)ccc2nc2n1[B-](F)(F)[n+]1ccccc1-2
In CC#N
  absorption maximum: 337 nm
In ClCCl
  absorption maximum: 350 nm

## COCCC1=Cc2nc1ccc1[nH]c(cc1CCOC)c1nc(c(O)cc3[nH]c2cc3CCOC)C(CCOC)=C1
In Cc1ccccc1
  absorption maximum: 680 nm

## F[B-]1(F)n2cccc2C(c2ccccc2)=C2C=CC(N3CCOCC3)=[N+]21
In CC#N
  absorption maximum: 473 nm
In CCCCCC
  absorption maximum: 514 nm
In CCOC(C)=O
  absorption maximum: 480 nm
In CO
  absorption maximum: 479 nm
In ClCCl
  absorption maximum: 486 nm

## c1ccc(-c2nc(-c3ccccc3)n3ccccc23)cc1
In C1CCCCC1
  absorption maximum: 302 nm
In CC#N
  absorption maximum: 305 nm
In CO
  absorption maximum: 301 nm
In ClC(Cl)Cl
  absorption maximum: 308 nm
In ClCCl
  absorption maximum: 385 nm
In O
  absorption maximum: 305 nm

## COCCOCCOCCOCC(COCCOCCOCCOC)Oc1cc(/C=C/c2ccc(C=C(C#N)C#N)cc2)c(OC(COCCOCCOCCOC)COCCOCCOCCOC)cc1/C=C/c1ccc(C=C(C#N)C#N)cc1
In ClCCl
  absorption maximum: 465 nm

## CCC1=C(C)C(=O)n2c1cc1[nH]c(C(=O)OC(C)(C)C)c(C)c1c2=O
In C1CCCCC1
  absorption maximum: 392 nm
In CO
  absorption maximum: 397 nm
In CS(C)=O
  absorption maximum: 397 nm
In ClC(Cl)Cl
  absorption maximum: 397 nm
In c1ccccc1
  absorption maximum: 396 nm

## CN(C)c1ccc(C#Cc2nc(-c3ccccc3)nc3ccccc23)cc1
In ClCCl
  absorption maximum: 414 nm

## F[B-]1(F)n2c(cc3sc4ccccc4c32)C(c2ccc(I)cc2)=C2C=c3sc4ccccc4c3=[N+]21
In ClC(Cl)Cl
  absorption maximum: 658 nm

## CCCCCCCCN1C(=O)c2ccc3c4c(-c5ccc(-n6c7ccccc7c7ccccc76)cc5)cc5c6c(cc(-c7ccc(-n8c9ccccc9c9ccccc98)cc7)c(c7ccc(c2c37)C1=O)c64)C(=O)N(CCCCCCCC)C5=O
In ClC(Cl)Cl
  absorption maximum: 551 nm

## COc1ccc2c(-c3nc(-c4cccc(C)c4)no3)cc(=O)oc2c1
In CCO
  absorption maximum: 401 nm
In ClC(Cl)Cl
  absorption maximum: 403 nm

## O=[N+]([O-])c1ccc(S(=O)(=O)Nc2ccc(C#Cc3ccc4ccc5ccc(C#Cc6ccc(NS(=O)(=O)c7ccc([N+](=O)[O-])cc7[N+](=O)[O-])cc6)c6ccc3c4c56)cc2)c([N+](=O)[O-])c1
In CO
  absorption maximum: 402 nm

## CCCCC1(c2ccccc2)Nc2c(-c3ccc(N(C)c4ccccc4)cc3)ccc(-c3ccc(N(C)c4ccccc4)cc3)c2N=C1c1ccccc1 (stereo not drawn)
In ClC(Cl)Cl
  absorption maximum: 380 nm

## O=S(=O)(c1ccccc1)c1ccc(-c2ccc3c(c2)c2cc(-c4ccc(S(=O)(=O)c5ccccc5)cc4)ccc2n3-c2ccccc2)cc1
In CCCCCC
  absorption maximum: 343 nm
In CN(C)C=O
  absorption maximum: 345 nm
In CO
  absorption maximum: 343 nm
In Cc1ccccc1
  absorption maximum: 340 nm
In ClCCl
  absorption maximum: 343 nm

## COc1ccc(-n2c3c4ccccc4nc(-c4ccc(C#N)cc4)c3c3c2c2c(-c4ccc(C#N)cc4)nc4ccccc4c2n3-c2ccc(OC)cc2)cc1
In ClC(Cl)Cl
  absorption maximum: 315 nm

## CC(C)c1cc(C(C)C)c(B2c3cc(-n4c5ccccc5c5ccccc54)ccc3N(c3ccccc3)c3ccc(-n4c5ccccc5c5ccccc54)cc32)c(C(C)C)c1
In C1CCCCC1
  absorption maximum: 400 nm

## CCOC(=O)C1=CNC=C(C(=O)OCC)C1c1ccccc1
In C1CCOC1
  absorption maximum: 355 nm
In CO
  absorption maximum: 355 nm

## C[C@]12SC(=O)C=C1c1nc(-c3ccc(O)cc3)[nH]c1C1=CC(=O)S[C@@]12C
In CC#N
  absorption maximum: 470 nm

## CCOC(=O)C1=C(N)n2c(=O)c3ccccc3c(=O)n2C1c1ccc([N+](=O)[O-])cc1 (stereo not drawn)
In CS(C)=O
  absorption maximum: 358 nm

## CC[C@H](C)COc1ccc(C2=C3C(C)=CC(C)=[N+]3[B-](F)(F)n3c(C)cc(C)c32)cc1
In ClCCl
  absorption maximum: 501 nm

## CCOC(=O)CC[N+]1=c2cc3c(cc2CCC1)=Cc1c(c2ccc(N(C)C)cc2oc1=O)O3
In CC#N
  absorption maximum: 593 nm
In CO
  absorption maximum: 591 nm
In ClCCl
  absorption maximum: 606 nm
In O
  absorption maximum: 587 nm

## CCN(CC)c1ccc(C=Cc2nc3nc4ccccc4nc3s2)cc1
In CO
  absorption maximum: 490 nm

## Cc1cc(N2c3ccccc3C(C)(C)c3ccccc32)ccc1-c1cc(-c2ccc(N3c4ccccc4C(C)(C)c4ccccc43)cc2C)ncn1
In Cc1ccccc1
  absorption maximum: 375.94 nm

## CN(C)c1ccc(C#Cc2ccc(-c3cc(N(C)C)c4ccccc4c3)cc2)cc1
In ClCCl
  absorption maximum: 352 nm

## CC(=O)Nc1ccc2c(c1)c(=O)c1cc(NC(C)=O)ccc1n2CCCCCC(=O)O
In O
  absorption maximum: 430 nm

## C#CC1CN2CCC1CC2[C@@H](O)c1ccnc2ccc(OC)cc12 (stereo partly drawn)
In C1CCOC1
  absorption maximum: 332 nm
In CC#N
  absorption maximum: 332 nm
In CCCC#N
  absorption maximum: 332 nm
In Cc1ccccc1
  absorption maximum: 332 nm
In ClCCl
  absorption maximum: 333 nm

## Cn1c(/C=C/c2ccc(/C=C/c3nc4ccccc4[nH]3)cc2)[n+](C)c2ccccc21
In C1CCOC1
  absorption maximum: 363 nm
In CC#N
  absorption maximum: 377 nm
In CC(C)=O
  absorption maximum: 386 nm
In CN(C)C=O
  absorption maximum: 389 nm
In CO
  absorption maximum: 391 nm
In CS(C)=O
  absorption maximum: 392 nm
In O
  absorption maximum: 376 nm

## CC(C)(C)c1ccc2c(c1)c1cc(C(C)(C)C)ccc1n2-c1cccc(-c2nc(-c3cccc(-n4c5ccc(C(C)(C)C)cc5c5cc(C(C)(C)C)ccc54)c3)nc(-c3cccc(P(=O)(c4ccccc4)c4ccccc4)c3)n2)c1
In C1CCOC1
  absorption maximum: 344.36 nm
In CC#N
  absorption maximum: 344.36 nm
In CC(C)=O
  absorption maximum: 344.36 nm
In CN(C)C=O
  absorption maximum: 344.36 nm
In Cc1ccccc1
  absorption maximum: 344.36 nm
In ClC(Cl)Cl
  absorption maximum: 344.36 nm
In ClCCl
  absorption maximum: 344.36 nm

## CCCCn1c2ccccc2c2ccc3c4cc(-c5ccccc5)ccc4n(CCCC)c3c21
In ClC(Cl)Cl
  absorption maximum: 330 nm

## CCN(CC)c1ccc(-c2nc3c4ccccc4n(C)c3nc2-c2ccc([B-](F)(c3c(C)cc(C)cc3C)c3c(C)cc(C)cc3C)cc2)cc1
In C1CCOC1
  absorption maximum: 411.11 nm

## CN(C)c1ccc(C#CC2=C3CCc4ccccc4C3=[O+][B-](F)(F)O2)cc1
In ClCCl
  absorption maximum: 514 nm

## CC(C)(C)c1ccc2c(c1)c1cc(C(C)(C)C)ccc1n2-c1ccc(S(=O)(=O)c2ccc(S(=O)(=O)c3ccc(-n4c5ccc(C(C)(C)C)cc5c5cc(C(C)(C)C)ccc54)cc3)cc2)cc1
In Cc1ccccc1
  absorption maximum: 363 nm

## CC(C)(C)c1ccc(-c2cc(-c3ccc(-c4cc(-c5ccc(C(C)(C)C)cc5)c(C#N)s4)s3)sc2C#N)cc1
In ClCCl
  absorption maximum: 392 nm

## CCC(CC)COC1=CC2=C3c4cc(OCC(CC)CC)c(-c5ccccc5)n4[B-](F)(F)[n+]4nnn(c43)[B-](F)(F)[N+]2=C1c1ccccc1
In C1CCOC1
  absorption maximum: 691 nm
In CC#N
  absorption maximum: 687 nm
In ClCCl
  absorption maximum: 700 nm

## CCOC(=O)CCCCCn1c2ccc(Cl)cc2c(=O)c2cc3c(cc21)c(=O)c1cc(Cl)ccc1n3CCCCCC(=O)OCC
In CO
  absorption maximum: 534 nm

## COc1ccc(/C=C/c2cc(/C=C/c3ccc(OC)cc3)nc(/C=C/c3ccccc3)n2)cc1
In ClCCl
  absorption maximum: 369 nm

## Cc1cc(C)c(C2=C3C=C(/C=C/C(=O)OC(C)(C)C)C=[N+]3[B-](F)(F)n3c2ccc3N2CCCC2)c(C)c1
In ClCCl
  absorption maximum: 479 nm

## CCn1c2ccccc2c2c3nsnc3c3c4ccccc4n(CC)c3c21
In CN(C)C=O
  absorption maximum: 420 nm
In Cc1ccccc1
  absorption maximum: 420 nm
In ClCCl
  absorption maximum: 420 nm

## CCCCCCc1ccc2c(/C=N/c3cc(/N=C/c4c(O)ccc5cc(CCCCCC)ccc45)cc(/N=C/c4c(O)ccc5cc(CCCCCC)ccc45)c3)c(O)ccc2c1
In C1CCOC1
  absorption maximum: 477 nm
In CC#N
  absorption maximum: 474 nm
In Cc1ccccc1
  absorption maximum: 480 nm
In ClCCl
  absorption maximum: 479 nm

## CN1C(=CC2=C([O-])C(=CC3=[N+](C)c4ccccc4C3(C)C)C2=C(C#N)C#N)C(C)(C)c2ccccc21
In ClC(Cl)Cl
  absorption maximum: 684 nm

## F[B-]1(F)OC(c2ccc(C(F)(F)F)cc2)=Cc2cc(Cl)nc[n+]21
In C1CCOC1
  absorption maximum: 371 nm
In CC#N
  absorption maximum: 368 nm
In CCCCCC
  absorption maximum: 370 nm
In Cc1ccccc1
  absorption maximum: 374 nm
In ClC(Cl)Cl
  absorption maximum: 372 nm
In ClCCl
  absorption maximum: 372 nm
